Results reported in patent US20250333421A1, “PYRIDAZINES OR 1,2,4-TRIAZINES SUBSTITUTED BY SPIROCYCLIC AMINES” (Janssen Pharmaceutica NV, priority 2021, published 2025).

Experiments:
MOLM14 cells = experiment: Proliferation assay (spheroid assay) in MOLM14; type: cell-based; conditions: Homo sapiens, MOLM-14, 192 h; MOLM14 (MLL-AF9), 8 days, confluence as measure of spheroid size; read-out: spheroid assay_OneTime MOLM14 IC50
Description: (§1) The anti-proliferative effect of menin/MLL protein/protein interaction inhibitor test compounds was assessed in human leukemia cell lines. The cell line MOLM14 harbors a MLL translocation and expresses the MLL fusion proteins MLL-AF9, respectively, as well as the wildtype protein from the second allele. […] KO-52 was used as a control cell line containing two MLL (KMT2A) wildtype alleles in order to exclude compounds that display general cytotoxic effects.
MOLM14 cells were cultured in RPMI-1640 (Sigma Aldrich) supplemented with 10% heat-inactivated fetal bovine serum (HyClone), 2 mM L-glutamine (Sigma Aldrich) and 50 µg/ml gentamycin (Gibco). KO-52 cell lines were propagated in alpha-MEM (Sigma Aldrich) supplemented with 20% heat-inactivated fetal bovine serum (HyClone), 2 mM L-glutamine (Sigma Aldrich) and 50 µg/ml gentamycin (Gibco).
In order to assess the anti-proliferative effects, 200 MOLM14 cells, or 300 KO-52 cells were seeded in 200 μl media per well in 96-well round bottom, ultra-low attachment plates (Costar, catalogue number 7007). Cell seeding numbers were chosen based on growth curves to ensure linear growth throughout the experiment. Test compounds were added at different concentrations and the DMSO content was normalized to 0.3%. Cells were incubated for 8 days at 37° C. and 5% CO2. Spheroid like growth was measured in real-time by live-cell imaging (IncuCyteZOOM, Essenbio, 4× objective) acquiring images at day 8. Confluence (%) as a measure of spheroid size was determined using an integrated analysis tool.
In order to determine the effect of the test compounds over time, the confluence in each well as a measure of spheroid size, was calculated. Confluence of the highest dose of a reference compound was used as baseline for the LC (Low control) and the confluence of DMSO treated cells was used as 0% cytotoxicity (High Control, HC).
Absolute IC50 values were calculated as percent change in confluence as follows:
LC=Low Control: cells treated with e.g. 1 μM of the cytotoxic agent staurosporin, or e.g. cells treated with a high concentration of an alternative reference compound
GraphPad Prism (version 7.00) was used to calculate the IC50. Dose-response equation was used for the plot of % Effect vs Log10 compound concentration with a variable slope and fixing the maximum to 100% and the minimum to 0%.

Menin/MLL = molecular target: T1, Menin/MLL (Homo sapiens, UniProt O00255, T541A); experiment: Menin/MLL homogenous time-resolved fluorescence (HTRF) assay; type: binding; conditions: 30 min incubation of test compound with terbium chelate-labeled menin; FITC-MBM1 peptide
T1 construct: Menin (a.a 1-610-6xhis tag)
T1 sequence (O00255 with tags, fused parts or gaps T541A): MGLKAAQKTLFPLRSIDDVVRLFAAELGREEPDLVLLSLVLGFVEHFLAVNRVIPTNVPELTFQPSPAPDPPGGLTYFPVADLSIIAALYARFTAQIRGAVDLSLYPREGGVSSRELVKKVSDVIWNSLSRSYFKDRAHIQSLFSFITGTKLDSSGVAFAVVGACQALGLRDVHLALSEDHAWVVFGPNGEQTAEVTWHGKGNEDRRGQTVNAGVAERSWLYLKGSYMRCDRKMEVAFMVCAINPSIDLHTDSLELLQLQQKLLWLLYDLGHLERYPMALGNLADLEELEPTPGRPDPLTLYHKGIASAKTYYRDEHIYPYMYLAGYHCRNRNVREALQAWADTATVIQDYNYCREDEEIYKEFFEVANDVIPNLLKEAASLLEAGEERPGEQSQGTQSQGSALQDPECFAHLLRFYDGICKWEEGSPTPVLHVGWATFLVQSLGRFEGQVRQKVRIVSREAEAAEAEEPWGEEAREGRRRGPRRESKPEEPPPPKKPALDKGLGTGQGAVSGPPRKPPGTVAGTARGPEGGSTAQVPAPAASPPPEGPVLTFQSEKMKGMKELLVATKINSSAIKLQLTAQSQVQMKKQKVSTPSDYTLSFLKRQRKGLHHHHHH
Description: 1) Menin/MLL homogenous time-resolved fluorescence (HTRF) assay
To an untreated, white 384-well microtiter plate was added 40 nL 200X test compound in DMSO and 4 μL 2X terbium chelate-labeled menin (vide infra for preparation) in assay buffer (40 mM Tris-HCl, pH 7.5, 50 mM NaCl, 1 mM DTT (dithiothreitol) and 0.05% Pluronic F-127). After incubation of test compound and terbium chelate-labeled menin for 30 min at ambient temperature, 4 μL 2X FITC-MBM1 peptide (FITC-β-alanine-SARWRFPARPGT-NH2 (SEQ ID NO: 2)) (“FITC” means fluorescein isothiocyanate) in assay buffer was added, the microtiter plate centrifuged at 1000 rpm for 1 min and the assay mixtures incubated for 15 min at ambient temperature. The relative amount of menin FITC--MBM1 complex present in an assay mixture is determined by measuring the homogenous time-resolved fluorescence (HTRF) of the terbium/FITC donor/acceptor fluorphore pair using an EnVision microplate reader (ex. 337 nm/terbium em. 490 nm/FITC em. 520 nm) at ambient temperature. The degree of fluorescence resonance energy transfer (the HTRF value) is expressed as the ratio of the fluorescence emission intensities of the FITC and terbium fluorophores (F^em 520 nm/F^em 490 nm). The final concentrations of reagents in the binding assay are 200 pM terbium chelate-labeled menin, 75 nM FITC-MBM1 peptide and 0.5% DMSO in assay buffer. Dose-response titrations of test compounds are conducted using an 11 point, four-fold serial dilution scheme, starting typically at 10 μM.
Compound potencies were determined by first calculating % inhibition at each compound concentration according to equation 1: […]
Where LC and HC are the HTRF values of the assay in the presence or absence of a saturating concentration of a compound that competes with FITC-MBM1 for binding to menin, and HTRF^compound is the measured HTRF value in the presence of the test compound. HC and LC HTRF values represent an average of at least 10 replicates per plate.
Where Bottom and Top are the lower and upper asymptotes of the dose-response curve, respectively, IC50 is the concentration of compound that yields 50% inhibition of signal and h is the Hill coefficient. IC50 values below 0.1 nM in the HTRF assay were reported as 0.1 nM in the Table below (detection limit).
Preparation of Terbium cryptate labeling of Menin: Menin (a.a 1-610-6xhis tag, 2.3 mg/mL in 20 mM Hepes (2-[4-(2-Hydroxyethyl)-1-piperazinyl]ethane sulfonic acid), 80 mM NaCl, 5 mM DTT (Dithiothreitol), pH 7.5) was labeled with terbium cryptate as follows. 200 μg of Menin was buffer exchanged into lx Hepes buffer. 6.67 μM Menin was incubated with 8-fold molar excess NHS (N-hydroxysuccinimide)-terbium cryptate for 40 minutes at room temperature. Half of the labeled protein was purified away from free label by running the reaction over a NAP5 column with elution buffer (0.1M Hepes, pH 7+0.1% BSA (bovine serum albumin)). The other half was eluted with 0.1 M phosphate buffered saline (PBS), pH7. 400 μl of eluent was collected for each, aliquoted and frozen at −80° C. The final concentration of terbium-labeled Menin protein was 115 μg/mL in Hepes buffer and 85 μg/mL in PBS buffer, respectively.

KO-52 cells = experiment: Proliferation assay (spheroid assay) in KO-52 control cell line; type: cell-based; conditions: Homo sapiens, 192 h; KO-52 (MLL wildtype control), 8 days, confluence as measure of spheroid size; read-out: spheroid assay_OneTime KO-52 IC50
Description: as §1
MOLM14 cells were cultured in RPMI-1640 (Sigma Aldrich) supplemented with 10% heat-inactivated fetal bovine serum (HyClone), 2 mM L-glutamine (Sigma Aldrich) and 50 µg/ml gentamycin (Gibco). […]
In order to assess the anti-proliferative effects, 200 MOLM14 cells, or 300 KO-52 cells were seeded in 200 μl media per well in 96-well round bottom, ultra-low attachment plates (Costar, catalogue number 7007). […] Spheroid like growth was measured in real-time by live-cell imaging (IncuCyteZOOM, Essenbio, 4× objective) acquiring images at day 8. Confluence (%) as a measure of spheroid size was determined using an integrated analysis tool.
In order to determine the effect of the test compounds over time, the confluence in each well as a measure of spheroid size, was calculated. […]
Absolute IC50 values were calculated as percent change in confluence as follows: […]

In the case of `CCN(C(=O)c1cc(F)ccc1Oc1nncnc1N1CCC2(C1)CN(C(CCCN(C)CCOC(F)(F)F)C(C)C)C2)C(C)C` (single isomer, unassigned) [Compound 2], the IC50 (MOLM14 cells) is reported as 0.02 µM, the IC50 (Menin/MLL) is reported as 0.000376 µM and the IC50 (KO-52 cells) is reported as 14.6 µM.
